Data reported in patent US6855710B2, “Substituted indolines with an inhibitory effect on various kinases and complexes of CDKs” (Boehringer Ingelheim Pharma KG, priority 1998, dated 2005).

Row | melting point | Structure (SMILES)
1 | 321 to 323 °C | NC(=O)c1ccc(N/C(=C2\C(=O)Nc3ccccc32)c2ccccc2)cc1 [Example 20, (Z)-3-[1-(4-aminocarbonyl-phenylamino)-1-phenyl-methylidene]-2-indolinone]
2 | 258 to 260 °C | CN(C)CCOc1ccc(N/C(=C2\C(=O)Nc3ccccc32)c2ccccc2)cc1 [Example 284, (Z)-3-{1-[4-(2-dimethylaminoethyloxy)-phenylamino]-1-phenyl-methylidene}-2-indolinone]
3 | 198 to 200 °C | Cc1ccc(S(=O)(=O)N(CC(=O)N(C)C)c2ccc(N/C(=C3\C(=O)Nc4ccc([N+](=O)[O-])cc43)c3ccccc3)cc2)cc1 [Example 210, (Z)-3-{1-[4-(N-dimethylaminocarbonylmethyl-N-(p-tolylsulphonyl)-amino)-phenylamino]-1-phenyl-methylidene}-5-nitro-2-indolinone]
4 | 246 to 248 °C | CN(C(=O)CN1CCNCC1)c1ccc(N/C(=C2\C(=O)Nc3ccc([N+](=O)[O-])cc32)c2ccccc2)cc1.Cl.Cl
5 | 247 to 249 °C | O=C(O)CCNCc1cccc(N/C(=C2\C(=O)Nc3ccc([N+](=O)[O-])cc32)c2ccccc2)c1 [Example 252, (Z)-3-{1-[3-(2-carboxyethylaminomethyl)-phenylamino]-1-phenyl-methylidene}-5-nitro-2-indolinone]
6 | 236 to 238 °C | O=C1Nc2ccc([N+](=O)[O-])cc2/C1=C(/Nc1ccc(CCNCCO)cc1)c1ccccc1 [Example 256, (Z)-3-{1-[4-(2-(2-hydroxyethylamino)-ethyl)-phenylamino]-1-phenyl-methylidene}-5-nitro-2-indolinone]
7 | 160 to 162 °C | CCCN(CCC)Cc1ccc(N/C(=C2\C(=O)Nc3ccc([N+](=O)[O-])cc32)c2ccccc2)cc1 [Example 161, (Z)-3-[1-(4-Dipropylaminomethyl-phenylamino)-1-phenyl-methylidene]-5-nitro-2-indolinone]
8 | 225 °C (dec.) | Cl.NC(Cc1ccc(N/C(=C2\C(=O)Nc3ccc([N+](=O)[O-])cc32)c2ccccc2)cc1)C(=O)O (centres unmarked)
9 | 305 to 307 °C | CC(=O)N(C)c1ccc(N/C(=C2\C(=O)Nc3ccc([N+](=O)[O-])cc32)c2ccccc2)cc1 [Example 98, (Z)-3-{1-[4-(N-acetyl-N-methyl-amino)-phenylamino]-1-phenyl-methylidene}-5-nitro-2-indolinone]
10 | 274 to 276 °C | O=C1Nc2ccc([N+](=O)[O-])cc2/C1=C(/Nc1ccc(CCN2CCC(O)CC2)cc1)c1ccccc1 [Example 260, (Z)-3-{1-[4-(2-(4-hydroxypiperidino)-ethyl)-phenylamino]-1-phenyl-methylidene}-5-nitro-2-indolinone]
11 | 306 to 307 °C | CC(=O)NCCc1ccc(N/C(=C2\C(=O)Nc3ccc([N+](=O)[O-])cc32)c2ccccc2)cc1 [Example 129, (Z)-3-{1-[4-(2-acetylamino-ethyl)-phenylamino]-1-phenyl-methylidene}-5-nitro-2-indolinone]
12 | 254 to 257 °C | CN(C)CC(=O)Nc1ccc(N/C(=C2\C(=O)Nc3ccc([N+](=O)[O-])cc32)c2ccccc2)cc1 [Example 94, (Z)-3-[1-(4-dimethylaminomethylcarbonylamino-phenylamino)-1-phenyl-methylidene]-5-nitro-2-indolinone]
13 | 148 to 150 °C | CCOC(=O)CN(C)C(=O)c1cccc(N/C(=C2\C(=O)Nc3ccccc32)c2ccccc2)c1 [Example 25, (Z)-3-{1-[3-(N-ethoxycarbonylmethyl-N-methyl-aminocarbonyl)-phenylamino]-1-phenyl-methylidene}-2-indolinone]
14 | 236 to 237 °C | NCc1ccc(N/C(=C2\C(=O)Nc3ccccc32)c2ccccc2)cc1 [Example 55, (Z)-3-[1-(4-aminomethyl-phenylamino)-1-phenyl-methylidene]-2-indolinone]
15 | 213 to 215 °C | Cc1ccc(S(=O)(=O)N(CCN(C)C)c2ccc(N/C(=C3\C(=O)Nc4ccccc43)c3ccccc3)cc2)cc1 [Example 454, (Z)-3-[1-(4-(N-(2-dimethylaminoethyl)-N-(p-tolylsulphonyl)-amino)-phenylamino)-1-phenyl-methylidene]-2-indolinone]
16 | 293 to 294 °C | O=C1Nc2ccccc2/C1=C(/Nc1ccc(S(=O)(=O)N2CCCC2)cc1)c1ccccc1 [Example 397, (Z)-3-{1-[4-(pyrrolidin-1-ylsulphonyl)-phenylamino]-1-phenyl-methylidene}-2-indolinone]
17 | 277 to 279 °C | COCCNC(=O)c1ccc(N/C(=C2\C(=O)Nc3ccccc32)c2ccccc2)cc1 [Example 388, (Z)-3-{1-[4-(2-methoxyethylaminocarbonyl)-phenylamino]-1-phenyl-methylidene}-2-indolinone]

Row | melting point | Structure (SMILES)
18 | 225 to 228 °C | Cl.NCC(=O)NCc1ccc(N/C(=C2\C(=O)Nc3ccc([N+](=O)[O-])cc32)c2ccccc2)cc1
19 | 220 °C | O=C1Nc2ccc([N+](=O)[O-])cc2/C1=C(/Nc1ccc(CN2CCCCCC2)cc1)c1ccccc1 [Example 119, (Z)-3-[1-(4-hexamethyleneiminomethyl-phenylamino)-1-phenyl-methylidene]-5-nitro-2-indolinone]
20 | 241 to 243 °C | CN(C)CCN(c1ccc(N/C(=C2\C(=O)Nc3ccccc32)c2ccccc2)cc1)S(=O)(=O)c1ccccc1 [Example 312, (Z)-3-{1-[4-(N-(2-dimethylaminoethyl)-N-phenylsulphonyl-amino)-phenylamino]-1-phenyl-methylidene}-2-indolinone]
21 | 146 to 148 °C | CC(C)S(=O)(=O)N(CC(=O)N(C)C)c1ccc(N/C(=C2\C(=O)Nc3ccccc32)c2ccccc2)cc1 [Example 304, (Z)-3-{1-[4-(N-(dimethylaminocarbonylmethyl)-N-isopropylsulphonyl-amino)-phenylamino]-1-phenyl-methylidene}-2-indolinone]
22 | 227 to 228 °C | O=C1Nc2ccc([N+](=O)[O-])cc2/C1=C(/Nc1ccc(CN2CCC(CO)CC2)cc1)c1ccccc1 [Example 250, (Z)-3-{1-[4-(4-hydroxymethyl-piperidinomethyl)-phenylamino]-1-phenyl-methylidene}-5-nitro-2-indolinone]
23 | 250 to 252 °C | CNC(=O)c1cccc(N/C(=C2\C(=O)Nc3ccccc32)c2ccccc2)c1 [Example 21, (Z)-3-[1-(3-methylaminocarbonyl-phenylamino)-1-phenyl-methylidene]-2-indolinone]
24 | 277 to 278 °C | CN(C)C(=O)CN(C)S(=O)(=O)c1ccc(N/C(=C2\C(=O)Nc3ccc([N+](=O)[O-])cc32)c2ccccc2)cc1 [Example 415, (Z)-3-{1-[4-(N-dimethylaminocarbonylmethyl-N-methyl-aminosulphonyl)-phenylamino]-1-phenyl-methylidene}-5-nitro-2-indolinone]
25 | 227 to 230 °C | CS(=O)(=O)N(CC(N)=O)c1cccc(N/C(=C2\C(=O)Nc3ccccc32)c2ccccc2)c1 [Example 319, (Z)-3-{1-[3-(N-aminocarbonylmethyl-N-methylsulphonyl-amino)-phenylamino]-1-phenyl-methylidene}-2-indolinone]
26 | 220 to 221 °C (dec.) | O=C1Nc2ccc([N+](=O)[O-])cc2/C1=C(/Nc1ccc(CNC2CC2)cc1)c1ccccc1 [Example 274, (Z)-3-{1-[4-(cyclopropylaminomethyl)-phenylamino]-1-phenyl-methylidene}-5-nitro-2-indolinone]
27 | 194 °C | CCS(=O)(=O)N(CCCN(C)C)c1ccc(N/C(=C2\C(=O)Nc3ccccc32)c2ccccc2)cc1 [Example 316, (Z)-3-{1-[4-(N-(3-dimethylaminopropyl)-N-ethylsulphonyl-amino)-phenylamino]-1-phenyl-methylidene}-2-indolinone]
28 | 175 to 177 °C | CCOC(=O)COc1ccc(N/C(=C2\C(=O)Nc3ccccc32)c2ccccc2)cc1 [Example 289, (Z)-3-{1-[4-(ethyloxycarbonylmethyloxy)-phenylamino]-1-phenyl-methylidene}-2-indolinone]
29 | 236 to 239 °C | CN(Cc1ccc(N/C(=C2\C(=O)Nc3ccc([N+](=O)[O-])cc32)c2ccccc2)cc1)c1ncccn1 [Example 272, (Z)-3-{1-[4-((N-methyl-N-pyrimidin-2-yl-amino)-methyl)-phenylamino]-1-phenyl-methylidene}-5-nitro-2-indolinone]
30 | 228 °C | CCC(=O)N(CCN1CCOCC1)c1ccc(N/C(=C2\C(=O)Nc3ccccc32)c2ccccc2)cc1 [Example 349, (Z)-3-{1-[4-(N-(2-morpholinoethyl)-N-propionyl-amino)-phenylamino]-1-phenyl-methylidene}-2-indolinone]
31 | 208 °C | CC(C)CNCc1ccc(N/C(=C2\C(=O)Nc3ccc([N+](=O)[O-])cc32)c2ccccc2)cc1 [Example 164, (Z)-3-[1-(4-isobutylaminomethyl-phenylamino)-1-phenyl-methylidene]-5-nitro-2-indolinone]
32 | 235 to 237 °C | CCOC(=O)CNC(=O)c1ccc(N/C(=C2\C(=O)Nc3ccccc32)c2ccccc2)cc1 [Example 392, (Z)-3-{1-[4-(ethoxycarbonylmethylaminocarbonyl)-phenylamino]-1-phenyl-methylidene}-2-indolinone]
33 | 209 to 211 °C | CCOC(=O)CN(C(=O)c1ccccc1)c1ccc(N/C(=C2\C(=O)Nc3ccccc32)c2ccccc2)cc1 [Example 360, (Z)-3-{1-[4-(N-ethoxycarbonylmethyl-N-benzoyl-amino)-phenylamino]-1-phenyl-methylidene}-2-indolinone]
34 | 224 to 226 °C | CN(C)C(=O)COc1ccc(N/C(=C2\C(=O)Nc3ccccc32)c2ccccc2)cc1 [Example 291, (Z)-3-{1-[4-(dimethylaminocarbonylmethyloxy)-phenylamino]-1-phenyl-methylidene}-2-indolinone]

Row | Structure (SMILES) | melting point
35 | CC(C)(C)OC(=O)Nc1ccc(N/C(=C2\C(=O)Nc3ccc([N+](=O)[O-])cc32)c2ccccc2)cc1 [Example 90, (Z)-3-[1-(4-tert.butoxycarbonylamino-phenylamino)-1-phenyl-methylidene]-5-nitro-2-indolinone] | 235 to 237 °C (dec.)
